Results: PubChem BioAssay (NCI)
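Five concentrations, 48 hours, 96-well plates. GI50 is the concentration that inhibits growth by half. The concentration for full growth arrest is given as TGI.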

Experiments:
Assay in all cases: inhibition of tumour cell growth, NCI panel, 48 h
HCT-15 colon = test system: HCT-15 colon
RPMI-8226 leukemia = test system: RPMI-8226 leukemia
SF-268 CNS = test system: SF-268 CNS
NCI-H522 lung = test system: NCI-H522 lung
OVCAR-8 ovarian = test system: OVCAR-8 ovarian
HCC-2998 colon = test system: HCC-2998 colon
SK-MEL-2 melanoma = test system: SK-MEL-2 melanoma
HL-60(TB) leukemia = test system: HL-60(TB) leukemia
OVCAR-4 ovarian = test system: OVCAR-4 ovarian
PC-3 prostate = test system: PC-3 prostate

SMILES | TGI (HCT-15 colon) [µM] | TGI (RPMI-8226 leukemia) [µM] | TGI (SF-268 CNS) [µM] | TGI (NCI-H522 lung) [µM] | TGI (OVCAR-8 ovarian) [µM] | TGI (HCC-2998 colon) [µM] | TGI (SK-MEL-2 melanoma) [µM] | TGI (HL-60(TB) leukemia) [µM] | TGI (OVCAR-4 ovarian) [µM] | TGI (PC-3 prostate) [µM] | GI50 (HCT-15 colon) [µM] | GI50 (RPMI-8226 leukemia) [µM] | GI50 (SF-268 CNS) [µM] | GI50 (NCI-H522 lung) [µM] | GI50 (OVCAR-8 ovarian) [µM] | GI50 (SK-MEL-2 melanoma) [µM] | GI50 (OVCAR-4 ovarian) [µM] | GI50 (HL-60(TB) leukemia) [µM] | GI50 (HCC-2998 colon) [µM]
COc1ccc2c(CN3CCCCC3CO)cc3cc(OC)c(OC)cc3c2c1 (stereo unspecified) | 20.8 | 33 | 20.1 | 7.72 | 19.9 | 21 | 17.8 | 12.5 | – | – | – | – | – | – | – | – | – | – | –
COCCCNC(=O)C1C(=O)N(CCCOC)C(=O)/C1=N\N (stereo unspecified) | > 100 | > 100 | > 100 | > 100 | > 100 | > 100 | > 100 | > 100 | > 100 | – | – | – | – | – | – | – | – | – | –
O=C1c2ccccc2C(Br)(Br)c2ccccc21 | > 31.6 | – | > 31.6 | > 31.6 | > 100 | > 31.6 | > 31.6 | > 31.6 | > 31.6 | – | – | – | – | – | – | – | – | – | –
Cc1ccc(S(=O)(=O)N/N=C(\c2nc3ccc(Cl)cc3[nH]c2=O)C(O)c2cccc([N+](=O)[O-])c2)cc1 (stereo unspecified) | > 100 | > 100 | > 100 | > 100 | > 100 | > 100 | > 100 | > 100 | > 100 | – | – | – | – | – | – | – | – | – | –
CN(C)CC(C)(C)C(=O)/C=C/c1ccc(/C=C/C(=O)C(C)(C)CN(C)C)cc1 | 5.49 | 5.47 | 2.86 | 0.292 | 6.71 | 3.04 | – | 4.17 | 2.29 | – | – | – | – | – | – | – | – | – | –
FC(F)(F)c1nc2nc(Cl)c(Cl)nc2n1CCCN1CCOCC1 | > 100 | > 100 | > 100 | > 100 | > 100 | – | > 100 | 40.3 | > 100 | > 100 | – | – | – | – | – | – | – | – | –
CCOc1ccc2nc(SCc3nc4n(n3)S(=O)(=O)c3ccccc3N4C)sc2c1 | > 100 | > 100 | > 100 | > 100 | > 100 | – | > 100 | > 100 | > 100 | – | > 100 | 31.5 | 57.6 | 86.4 | 73 | > 100 | > 100 | 82.7 | –
CCC[CH2][Sn]1([CH2]CCC)[O]CC(Cc2ccccc2)[O]1 (stereo unspecified) | 5.82 | 3.62 | – | 0.93 | 6.59 | 20.2 | 3.45 | 2.31 | 26 | – | 2.24 | 0.312 | – | 0.259 | 2.61 | 1.54 | 13.2 | 0.51 | 7.25
O=C1c2ccccc2-c2c1c1c(=O)[nH]c3ccccc3c1n2Cc1ccccc1 | > 100 | > 100 | 48.7 | > 100 | > 100 | – | > 100 | > 100 | > 100 | – | 59.1 | > 100 | 17.7 | 42.7 | 51 | > 100 | 45.4 | > 100 | –
CC(=O)[O][Ga]([Cl])[O]C(C)=O | – | > 100 | > 100 | > 100 | > 100 | – | > 100 | > 100 | > 100 | – | – | > 100 | > 100 | > 100 | > 100 | > 100 | > 100 | > 100 | –
COc1cc2c(c(OC)c1OC)-c1ccc(SC)c(=O)cc1[C@@H](NCc1ccc(C#N)cc1)CC2 | 0.0463 | > 100 | – | 0.0081 | – | 0.00662 | – | 0.0089 | > 100 | – | – | – | – | – | – | – | – | – | –
Nc1ccccc1C(=O)CC1OC(=O)c2ccccc21 (stereo unspecified) | > 100 | > 100 | > 100 | > 100 | > 100 | – | 88 | > 100 | > 100 | > 100 | – | – | – | – | – | – | – | – | –
COC(=O)N(C(=O)OC)C(C(=O)O)C(C)C (stereo unspecified) | – | – | > 100 | > 100 | > 100 | > 100 | > 100 | > 100 | > 100 | – | – | – | – | – | – | – | – | – | –
CC(C)(C)N=NNc1cn(C2OC(CO)C(O)C2O)c(=O)[nH]c1=O (stereo unspecified) | > 100 | 42.7 | > 100 | > 100 | > 100 | > 100 | > 100 | > 100 | – | – | – | – | – | – | – | – | – | – | –
CC(C(=O)c1ccccc1)C(c1ccccc1)N1CCOCC1 (stereo unspecified) | > 100 | > 100 | > 100 | > 100 | > 100 | – | > 100 | > 100 | > 100 | > 100 | – | – | – | – | – | – | – | – | –
O=c1nc(/C=C/c2ccccc2Cl)cc2n1CCN2CCO | > 100 | > 100 | > 100 | 47.4 | > 100 | – | > 100 | > 100 | > 100 | – | – | – | – | – | – | – | – | – | –
Cc1ccc(SC(CCC(Sc2ccc(C)cc2)Sc2ccc(C)cc2)Sc2ccc(C)cc2)cc1 | > 100 | > 100 | > 100 | > 100 | > 100 | – | > 100 | > 100 | > 100 | – | – | – | – | – | – | – | – | – | –
CCOC(=O)N1CCN(c2nc(Nc3cc(C)[nH]n3)c3ccccc3n2)CC1 | > 100 | 13.6 | 39 | 30.7 | 63.2 | 48.7 | 55.5 | 34.1 | > 100 | – | 0.992 | 3.4 | 3.54 | 2.82 | 8.63 | 0.737 | 4.04 | 12 | 11.7
CC1CCC2(CC1)NN=c1s/c(=C\c3ccc(O)cc3)c(=O)n1N2 (stereo unspecified) | – | > 100 | > 100 | > 100 | > 100 | > 100 | – | > 100 | > 100 | – | – | – | – | – | – | – | – | – | –
COc1ccc(OC)c(/C(C)=N/NC(N)=S)c1 | > 100 | > 100 | > 100 | – | > 100 | > 100 | > 100 | > 100 | > 100 | – | – | – | – | – | – | – | – | – | –
